According to the supplement of paper PMC10307832:

Key:
Assay in all cases: relative viability (nuclei count vs DMSO), 5 days (fraction); higher = more cells survive
Carboplatin + Crizotinib = compound: C1CC(C1)(C(=O)O)C(=O)O.[NH2-].[NH2-].[Pt+2] [Carboplatin] + C[C@@H](Oc1cc(-c2cnn(C3CCNCC3)c2)cnc1N)c1c(Cl)ccc(F)c1Cl [Crizotinib] (partner 1 µM)
Method in brief: (§1)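 The day after seeding in 1536-well plates, lung cancer cell lines were treated by pin tool with a single drug, or with a fixed anchor-drug dose together with five library-drug doses (not always all listed) in √10 steps. After 5 days, a combined fix-and-stain solution (final 0.05% Triton X-100, 1% formaldehyde, 1 ug/ml Hoechst) was added. Nuclei counted on 4× images gave relative viability as treated counts over vehicle counts, reported as the median of duplicate plates.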

Carboplatin + Phenformin = compound: C1CC(C1)(C(=O)O)C(=O)O.[NH2-].[NH2-].[Pt+2] [Carboplatin] + N=C(N)NC(=N)NCCc1ccccc1 [Phenformin] (partner 250 µM)
Method in brief: as §1

GSK126 + Dasatinib = compound: CC[C@H](C)N1C=C(C2=C(C=C(C=C21)C3=CN=C(C=C3)N4CCNCC4)C(=O)NCC5=C(C=C(NC5=O)C)C)C [GSK126] + Cc1nc(Nc2ncc(C(=O)Nc3c(C)cccc3Cl)s2)cc(N2CCN(CCO)CC2)n1 [Dasatinib] (partner 0.075 µM)
Method in brief: as §1

MLN4924 + Bortezomib = compound: NS(=O)(=O)OC[C@@H]1C[C@@H](n2ccc3c(N[C@H]4CCc5ccccc54)ncnc32)C[C@@H]1O [MLN4924] + CC(C)C[C@H](NC(=O)[C@H](Cc1ccccc1)NC(=O)c1cnccn1)B(O)O [Bortezomib] (partner 0.002 µM)
Method in brief: as §1

Cell Line	relative viability (Carboplatin + Crizotinib; first compound 0.08 µM)	relative viability (Carboplatin + Crizotinib; first compound 0.253 µM)	relative viability (Carboplatin + Crizotinib; first compound 0.8 µM)	relative viability (Carboplatin + Crizotinib; first compound 2.53 µM)	relative viability (Carboplatin + Crizotinib; first compound 8 µM)	relative viability (Carboplatin + Phenformin; first compound 0.08 µM)	relative viability (Carboplatin + Phenformin; first compound 0.253 µM)	relative viability (Carboplatin + Phenformin; first compound 0.8 µM)	relative viability (Carboplatin + Phenformin; first compound 2.53 µM)	relative viability (Carboplatin + Phenformin; first compound 8 µM)	relative viability (GSK126 + Dasatinib; first compound 0.08 µM)	relative viability (GSK126 + Dasatinib; first compound 0.253 µM)	relative viability (GSK126 + Dasatinib; first compound 0.8 µM)	relative viability (GSK126 + Dasatinib; first compound 2.53 µM)	relative viability (GSK126 + Dasatinib; first compound 8 µM)	relative viability (MLN4924 + Bortezomib; first compound 0.04 µM)	relative viability (MLN4924 + Bortezomib; first compound 0.1265 µM)	relative viability (MLN4924 + Bortezomib; first compound 0.4 µM)	relative viability (MLN4924 + Bortezomib; first compound 1.265 µM)	relative viability (MLN4924 + Bortezomib; first compound 4 µM)
NCI-H1437	0.909	0.96	0.892	0.936	0.805	0.29	0.303	0.294	0.301	0.299	0.392	0.368	0.416	0.441	0.349	0.437	0.448	0.443	0.148	0.115
NCI-H1563	0.975	0.901	0.834	0.853	0.854	0.691	0.668	0.672	0.7	0.631	0.438	0.455	0.461	0.459	0.441	1.35	1.03	0.617	0.474	0.59
NCI-H1650	1.2	0.968	0.907	0.824	0.533	0.457	0.5	0.359	0.406	0.349	0.349	0.333	0.284	0.281	0.338	0.226	0.194	0.172	0.182	0.177
NCI-H1651	0.931	0.929	0.738	0.748	0.712	0.386	0.335	0.288	0.272	0.218	0.534	0.427	0.363	0.443	0.45	0.936	0.99	0.966	0.498	0.181
NCI-H1666	0.997	1.07	0.838	0.917	0.568	0.612	0.6	0.531	0.565	0.49	0.675	0.586	0.579	0.616	0.656	0.542	0.491	0.348	0.183	0.27
NCI-H1734	0.682	0.673	0.637	0.716	0.614	0.463	0.479	0.364	0.356	0.364	0.573	0.505	0.463	0.467	0.449	0.817	0.602	0.251	0.134	0.118
NCI-H1755	0.868	0.935	0.853	0.848	0.743	0.65	0.618	0.623	0.604	0.576	0.502	0.49	0.405	0.448	0.428	0.898	0.743	0.443	0.21	0.166
NCI-H1792	1.07	1.04	0.945	0.888	0.866	0.318	0.317	0.192	0.203	0.237	0.829	0.607	0.743	0.608	0.72	0.938	1	1.09	0.663	0.425
NCI-H1915	0.873	0.929	0.875	0.756	0.521	0.376	0.389	0.364	0.353	0.301	0.3	0.3	0.34	0.347	0.328	0.982	0.941	0.815	0.22	0.187
NCI-H1975	0.955	0.943	0.919	0.969	0.911	0.437	0.43	0.437	0.413	0.394	0.389	0.366	0.375	0.355	0.291	0.526	0.452	0.26	0.169	0.149
NCI-H1993	0.958	0.909	0.892	0.775	0.723	0.542	0.498	0.467	0.477	0.499	0.701	0.598	0.375	0.703	0.646	0.856	0.72	0.664	0.383	0.474
NCI-H2009	1.06	1	0.987	0.965	0.611	0.519	0.47	0.444	0.433	0.42	0.331	0.261	0.306	0.231	0.296	0.889	0.275	0.27	0.079	0.0747
NCI-H2023	0.633	0.604	0.566	0.419	0.144	0.447	0.413	0.381	0.27	0.145	0.641	0.566	0.584	0.627	0.661	0.927	0.796	0.113	0.0794	0.0811
NCI-H2085	1.01	0.932	0.778	0.754	0.676	0.88	0.741	0.695	0.737	0.775	0.248	0.234	0.285	0.287	0.217	1.09	1.09	1.1	0.76	0.648
NCI-H2087	0.817	0.907	0.8	0.845	0.769	0.493	0.48	0.383	0.424	0.332	1.14	0.707	0.856	0.78	0.908	0.746	0.717	0.468	0.151	0.154
NCI-H2126	1.04	1.06	1.02	0.962	1	0.591	0.525	0.537	0.503	0.492	0.656	0.661	0.644	0.671	0.494	1.17	1.16	0.907	0.392	0.348
NCI-H2228	0.469	0.517	0.41	0.593	0.428	0.26	0.342	0.294	0.257	0.282	0.597	0.513	0.522	0.562	0.493	–	1.03	0.309	0.121	0.166
NCI-H2347	0.903	0.697	0.635	0.571	0.632	0.36	0.382	0.583	0.534	0.324	0.257	0.331	0.347	0.305	0.304	0.79	0.933	0.532	0.392	0.395
NCI-H2405	0.901	0.906	0.847	0.813	0.754	0.455	0.379	0.369	0.38	0.383	0.203	0.207	0.188	0.19	0.189	0.935	0.957	0.639	0.266	0.283
NCI-H3122	0.3	0.299	0.275	0.323	0.28	0.4	0.399	0.385	0.37	0.359	0.969	0.728	0.819	0.748	1.2	1.07	0.752	0.35	0.208	0.146
PC-3 [JPC-3]	1.03	1.04	0.962	0.966	0.902	0.486	0.461	0.449	0.473	0.456	1.12	0.997	0.997	1.02	0.978	0.857	0.819	0.573	0.328	0.282
PC-14	0.895	0.856	0.851	0.83	0.532	0.807	0.592	0.53	0.383	0.274	0.261	0.236	0.231	0.255	0.222	0.857	0.823	0.369	0.172	0.101
RERF-LC-KJ	0.824	0.861	0.84	0.72	0.631	0.45	0.387	0.386	0.335	0.317	0.883	0.886	0.756	0.717	0.703	0.874	0.828	0.244	0.24	0.28
SK-LU-1	1.09	1.08	1.05	0.961	0.626	0.78	0.578	0.44	0.533	0.41	0.213	0.231	0.189	0.199	0.173	0.856	0.866	0.293	0.187	0.28
SW 1573	0.821	0.781	0.652	0.886	0.661	0.38	0.354	0.414	0.359	0.265	0.709	0.659	0.515	0.479	0.524	1.03	0.932	0.249	0.0788	0.0726
